In EP4076431B1, “COMPOSITION AND METHOD FOR THE PREVENTION AND TREATMENT OF TYPE 2 DIABETES” (Vector Vitale IP LLC, priority 2019, dated 2021):
“And” between values parts separate entries of the source, which are not always exact repeats. Equal values may be shown once.

Experiments:
glycated hemoglobin = assay: Glycated hemoglobin, streptozotocin-induced type I diabetes model; conditions: Table 22; streptozotocin diabetic rats; 800 µg of zinc per animal orally, 7 doses; n = 10
Description: The levels of glycated hemoglobin in whole blood of rats was measured spectrophotometrically in accordance with the established procedure. The assay was performed using a standard assay kit manufactured by Lachema (Czech Republic).
The method for glycated hemoglobin measurement is based on the fact that the stable form of glycohemoglobin (HbA1c) contains 1-deoxy-1-(N-valyl) fructose, which is dehydrated with phosphoric acid to form a colored complex with an absorption spectrum at 433 nm. Neither the labile form of glycohemoglobin nor fetal hemoglobin interferes with the determination of glycated hemoglobin.
Total hemoglobin was measured spectrophotometrically. […] The absorbance was read at a wavelength of 540 nm against the transforming solution. The total hemoglobin fraction was calculated according to the manufacturer's recommendations using the following formula: Hb = (A∗367,7)/(4,92) [formula] where Hb is total hemoglobin, A is optical density of the test sample. […]
Hemolysate was prepared by adding an anticoagulant, 3.8% solution of Na citrate diluted at 1:10, to freshly collected blood. […] The optical density of the samples was measured on a spectrophotometer at a wavelength of 443 nm against distilled water. […]
Concentration of glycohemoglobin was expressed as µmols of fructose per g of hemoglobin (Glycated hemoglobin / Assay kit // Pliva-lachema diagnostica. - 2008. - 10003258.).

[1] = Anthropometric values and food consumption, high-fat diet induced obesity model; conditions: Table 3
Description: Before the start of the experiment, animals were maintained on a standard diet of the vivarium. To induce obesity in experimental animals, they were fed high-fat diet which consisted of standard feed (60%), lard (10%), chicken eggs (10%), sucrose (9%), peanuts (5%), dry milk (5%) and sunflower oil (1%) (1%) (see X. H. Shen et al., Exp. Biol. and Med. 235: 47-51 (2010)).
Animals in all groups were weighed once a week after an overnight fast. The amount of feed to be consumed by the animals was determined daily. At the end of a 10-week period of the development of obesity models, 24 hours after the last administration of the zinc isotope solution, animals were removed from their cages and decapitated.
The body mass index (BMI) (the ratio of body weight (g) to the square of body length (cm^2)) was calculated at the end of the experiment.
Animals with an initial weight of 195-205±10 g maintained on the standard diet of the vivarium before performing obesity models were used in the experiments. To induce obesity in experimental animals, they were fed high-fat diet which consisted of standard feed (60%), lard (10%), chicken eggs (10%), sucrose (9%), peanuts (5%), dry milk (5%) and sunflower oil (1%), Shen X. et al., Experimental Biology and Medicine. - 2010. - Nº 235. - P. 47-51.
Animals in all groups were weighed once a week after an overnight fast. The amount of feed to be consumed by the animals was determined daily.
The body mass index (BMI) (the ratio of body weight (g) to the square of body length (cm2)) was calculated at the end of the experiment.

[2] = Accumulation of metals in liver and kidney tissues, intact rats; format: in vivo; conditions: day 1 and day 7 after discontinuation; intraperitoneal
Description: The total kidney, liver and muscle homogenates were prepared as follows. Organ excision and homogenization were carried out at a temperature of 1-4°C. Homogenization of tissues was carried out in 50 mM Tris-HCl buffer (pH 7.4) which contained 140 mM NaCl, 1 mM EDTA. The volume of the used buffer in ml was 5 times larger than the mass of isolated organs in grams. The isolated liver was perfused with chilled saline (0.9% NaCl) via the portal vein using a syringe. The minced liver was transferred to a homogenizer with a finely ground Teflon pestle and homogenized in chilled buffer. An isolated pair of kidneys was perfused with chilled saline, released from adipose tissue and minced with scissors. The minced tissue was transferred to a homogenizer with a finely ground Teflon pestle and homogenized in chilled buffer. The total kidney and liver homogenates were centrifuged at 600 g for 15 minutes. The liquid was decanted after the mince settled down and was centrifuged again at 15,000 g for 15 minutes. These two procedures allowed us to get rid of nuclear and mitochondrial debris. Aliquots of the prepared homogenates were frozen in nitrogen (Rybalchenko V.K., Koganov M.M. Structure and function of membrane 1988. - 312 pp).

[3] = Blood glucose, streptozotocin-induced type I diabetes model, oral administration; conditions: Table 22; streptozotocin diabetic rats; 800 µg of zinc per animal orally, 7 doses every other day; n = 10
Description: Number of animals: 10 (males). Animals were housed in cages, 4 per cage, and provided ad libitum access to food and water. To induce diabetes in animals, each animal was given a single injection of streptozotocin solution at a dose of 6 mg per 100 g of animal weight dissolved in 10 mM citrate buffer (pH 4.5) intraperitoneally. The fasted animals were tested for sufficient levels of glycemia two days after induction of diabetes. Rats with blood glucose concentrations within the range >20 mmol/l were used in the experiments.
24 hours later, 7 doses of the test substance were administered to the animals orally. Frequency of administration - every other day.
Dose of administration - 800 µg of zinc per animal.
The glucose concentration in whole blood was measured by the glucose oxidase method using a GlucoDr Auto AGM-4000 blood glucose meter (Allmedicus Co., Ltd., Korea). All procedures were performed according to the manufacturer's instructions
Type I experimental diabetes was induced by a single intraperitoneal injection of streptozotocin solution at a dose of 6 mg per 100 g of animal weight dissolved in 10 mM citrate buffer (pH 4.5). The rats of the control group were administered 10 mM citrate buffer (pH 4.5) by the aforementioned method. The whole blood glucose concentrations were measured two days after induction of diabetes in rats.

IFN-γ = assay: Cytokine profile, immunoenzyme method, obesity model: IFN-γ; conditions: Table 7, serum
Description: (§1) Adipose tissue was crushed using cold scissors then transferred to a homogenizer with a loose-fitting Teflon pestle. The tissue was homogenized using approximately 30 strokes of the pestle in cold homogenization buffer (50 mM Tris-HCl (pH 7.4) containing 130 mM NaCl). Primary homogenate thus obtained was centrifuged at 600 g for 15 minutes. The supernatant was carefully collected and re-centrifuged at 15,000 g for 15 minutes. The supernatant was then frozen and stored at -80°C until the experiments.
(§2) The levels of insulin, interleukins and adipokines were determined using immunoenzyme method (Halenova TI et al. RSC Adv. 2016;6: 100046-55), which was carried out in microplates with a sorption capacity in accordance with the soluble protein test procedure. The antigen solution, previously diluted with 0.1 M NaHCOs buffer, pH 9.6, to a concentration of 10 µg/ml, was incubated in the plate wells for 12 hours at 4°C. Unbound material was removed by washing the wells three times with TBS buffer, first with 0.05% Tween-20, then without Tween-20. Non-specific binding sites were blocked by adding a solution of 5% skim milk or a solution of 1% bovine serum albumin to the plate wells and incubating them for 60 minutes at 37°C. […]
(§3) The absorbance at a wavelength of 492 nm was measured using a µQuant microplate spectrophotometer (BioTek Instruments).

IL-4 = assay: Cytokine profile, immunoenzyme method, obesity model: IL-4; conditions: Table 7, serum
Description: as §1, §2, §3

IL-6 = assay: Cytokine profile, immunoenzyme method, obesity model: IL-6; conditions: Table 7, serum
Description: as §1, §2, §3

collagen fibers = assay: Morphometric analysis of liver fibrosis, Van Gieson staining, obesity model; conditions: rats eating a standard diet, treated
Description: To carry out a histochemical reaction to determine the level of liver fibrosis, Van Gieson's picro-fuchsin method of staining was used. To do this, the sections were first soaked with water and then re-stained with Bömer's hematoxylin for 3-4 minutes. The sections were then rinsed in distilled water and stained with Van Gierson's picro-fuchsin for 3 minutes. Once stained, the sections were rinsed in distilled water, dehydrated in 96% alcohol, cleared in dioxane and xylene, and enclosed in a balsam under a coverslip. […] All parameters were measured using ImageJ software.

IL-1 = assay: Cytokine profile, immunoenzyme method, obesity model: IL-1; conditions: Table 7, serum
Description: as §1, §2, §3

TGF = assay: Cytokine profile, immunoenzyme method, obesity model: TGF; conditions: Table 7, serum
Description: as §1, §2, §3

Glucose tolerance test = conditions: dose 5 mg/kg in a volume of 2 ml, individual animals 1-5
Description: Animals that had access only to water 16 hours before the start of the experiment were used in the glucose tolerance test. Rats were anesthetized with intraperitoneal injection of sodium thiopental at a dose of 40 mg/kg. 5 animals were used within the same experimental group. Basal levels of glycaemia were determined in rats, after which the animals were fed 2 ml of aqueous glucose solution at a dose of 3 g/kg. The concentration of glucose was determined 60 minutes after the start of the experiment.
A glucose tolerance test was performed to determine a potential effect of zinc isotope on the dynamics of glucose concentration in the blood flow. Experimental procedure: laboratory animals are given intragastric injections of either normal saline solution or zinc in saline solution (5 mg/kg) in a volume of 2 ml. After that, 60 minutes after the aforementioned injections, the basal level of glucose is measured and a glucose solution is injected in an amount of 3 g/kg in a volume of 2 ml using the same route of administration. The blood glucose levels are measured again 60 minutes after injecting the glucose solution.

[4] = C+zinc: control rats, standard diet
[5] = DIO+zinc: diet-induced obesity rats

Zinc asparaginate [^64Zne]
Glycated hemoglobin (glycated hemoglobin): 0,51 ± 0,05 µmol fructose/g Hb | Amount of food consumed [1, 4]: 32 g/day | Calorie content of food [1, 4]: 490 kJ/day | Weight gain as of the end of the experiment [1, 4]: 59% | BMI ([1]; C+zinc: control rats, standard diet, ^64Zne administration): 0.59 g/cm^2 | Amount of food consumed [1, 5]: 29 g/day | Calorie content of food [1, 5]: 823 kJ/day | Weight gain as of the end of the experiment [1, 5]: 62% | BMI ([1]; DIO+zinc: diet-induced obesity rats, ^64Zne 2.25 mg/ml, 2 ml intragastrically every third day, 10th week): 0.65 g/cm^2 | accumulation of other metals (manganese, copper) in kidney and liver tissues [2]: within the same concentrations as in the control group of animals | accumulation of zinc in kidney and liver tissues [2]: significantly increased | Glucose [3]: 20 ± 3 mM | Levels, Pro-inflammatory cytokines, IFN-γ (IFN-γ; C+^64Zne): 4.6±0.6 RU/mg protein | Levels, Pro-inflammatory cytokines, IFN-γ (IFN-γ; DIO+^64Zne): 4.1±1.2 RU/mg protein | Levels, Anti-inflammatory cytokines, IL-4 (IL-4; C+^64Zne): 4.6±0.8 RU/mg protein | Levels, Anti-inflammatory cytokines, IL-4 (IL-4; DIO+^64Zne): 5.6±1.6 RU/mg protein | Levels, Pro-inflammatory cytokines, IL-6 (IL-6; C+^64Zne): 4.3±0.2 RU/mg protein | Levels, Pro-inflammatory cytokines, IL-6 (IL-6; DIO+^64Zne): 5.1±0.4 RU/mg protein | increase in the area of deposition of collagen fibers (collagen fibers): 2 fold | Levels, Pro-inflammatory cytokines, IL-1 (IL-1; C+^64Zne: control rats): 3.5±0.7 RU/mg protein | Levels, Pro-inflammatory cytokines, IL-1 (IL-1; DIO+^64Zne: diet-induced obesity rats): 4.2±0.4 RU/mg protein | Levels, Anti-inflammatory cytokines, TGF (TGF; C+^64Zne): 4.1±0.4 RU/mg protein | Levels, Anti-inflammatory cytokines, TGF (TGF; DIO+^64Zne): 5.7±0.3 # RU/mg protein

CC(=O)[O-].CC(=O)[O-].[Zn+2] [Zn acetate, Zn acetate (Zn(CH3COO)2), reference compound]
accumulation of other metals (manganese, copper) in kidney and liver tissues [2]: within the same concentrations as in the control group of animals | accumulation of zinc in kidney and liver tissues [2]: significantly increased | 60 min (1 h after glucose administration) (Glucose tolerance test; Table 2, blood glucose after glucose 3 g/kg): 7,2 (2×) and 6,9 and 7,3 and 6,8 | 0 min (1 h after effector administration) (Glucose tolerance test; Table 2, blood glucose before glucose load, fast overnight): 4,6 and 5,2 (2×) and 4,9 and 5,1
